According to patent US4238495A, “1-(4-Cyano-phenoxy)-2-hydroxy-3-[2-(5-1H-tetrazolyl )-chromon-5-yloxy]-propane and salts thereof” (Miles Laboratories, Inc., priority 1976, dated 1980):

How the values were obtained:
[1] = tested on: passive cutaneous anaphylaxis (skin wheals, egg albumin antigen); experiment: passive cutaneous anaphylaxis (PCA) test, egg albumin as the antigen, i.v.; type: in vivo; details: dose that reduced wheal diameter by 50%, injected i.v. together with antigen, rat PCA; for ED50: iv, read-out: ID50 (i.v.)
Protocol: (§1) Compounds described in above examples 3 and 4 were evaluated for anti-allergic activity in the rat by the passive cutaneous anaphylaxis test (hereafter PCA), utilizing egg albumin as the antigen.
The intensity of such PCA reactions is assessed by measuring the diameters of wheals which develop in the skin of the test animals. Details of the PCA test can be found in the following references: I. Mota, Life Sciences, 1: 465 (1963); and B. Ogilvie, Immunology, 12: 113 (1967).
(§2) In the following table, ID50 is the dose which reduced the diameter of the wheal by 50% when injected intravenously together with the antigen. LD50 is the intravenous dose that caused death in 50% of the test animals. Therapeutic index is the ratio, LD50/ID50. The reference compounds utilized were: disodium chromoglycate (DSCG); 1-(phenoxy)-2-hydroxy-3-[2-(5-1H-tetrazolyl)-chromon-5-yloxy]-propane; 1-(4-chloro-phenoxy)-2-hydroxy-3-[2-(5-1H-tetrazolyl)-chromon-5-yloxy]-propane; 1-(4-hydroxy-phenoxy)-2-hydroxy-3-[2-5-1H-tetrazolyl)-chromon-5-yloxy]-propane; 1-(4-propyl-phenoxy)-2-hydroxy-3-[2-5-1H-tetrazolyl)-chromon-5-yloxy]-propane; and sodium 1-(4-cyano-phenoxy)-2-hydroxy-3-(2-carboxy-chromon-5-yloxy)-propane.

[2] = intravenous lethality (LD50) in test animals; details: rat
Text: as §2

[3] = therapeutic index, LD50/ID50 (i.v. lethality over PCA); details: rat, in vivo, iv
Protocol: as §1, §2

[4] = tested on: passive cutaneous anaphylaxis (skin wheals, egg albumin antigen); experiment: as above
Protocol: as §1, §2

[5] = iv, LD50 (i.v.), i.v. dose that caused death in 50% of test animals
[6] = THERAPEUTIC INDEX, ratio LD50/ID50

Structure (SMILES) | ED50 [1] | LD50 [2, 5] | selectivity ratio [3, 6] | also measured
O=c1cc(-c2nnn[nH]2)oc2cccc(OCC(O)COc3ccc(Cl)cc3)c12 (stereo not drawn) [Augstein Cl, 1-(4-chloro-phenoxy)-2-hydroxy-3-[2-(5-1H-tetrazolyl)-chromon-5-yloxy]-propane] | 1.8 µmol/kg |  |  | LD50 ([2]; in vivo): > 1.8 µmol/kg; selectivity ratio [3]: > 1
N#Cc1ccc(OCC(O)COc2cccc3oc(C(=O)O)cc(=O)c23)cc1.[Na] (stereo not drawn) |  |  |  | LD50 ([2]; iv, LD50 (i.v.)): 2380 µmol/kg; selectivity ratio [3]: 3170
CCCc1ccc(OCC(O)COc2cccc3oc(-c4nnn[nH]4)cc(=O)c23)cc1 (stereo not drawn) [Augstein C3 H7] | > 25 µmol/kg | > 493 µmol/kg | > 19.7 | 
N#Cc1ccc(OCC(O)COc2cccc3oc(-c4nnn[nH]4)cc(=O)c23)cc1 (stereo not drawn) [Ex. 3, 1-(4-CYANO-PHENOXY)-2-HYDROXY-3-[2-(5-1H-TETRAZOLYL)CHROMON-5-YLOXY]-PROPANE] | 0.075 µmol/kg | > 1180 µmol/kg | > 15800 | therapeutic index, times greater than the nearest conger disclosed in Warren ([4]; rat, in vivo): about 5 times; therapeutic index, times greater than DSCG ([4]; versus DSCG): about 15 times
O=c1cc(-c2nnn[nH]2)oc2cccc(OCC(O)COc3ccccc3)c12 (stereo not drawn) [Augstein H, 1-(phenoxy)-2-hydroxy-3-[2-(5-1H-tetrazolyl)-chromon-5-yloxy]-propane] | 2.25 µmol/kg | > 1050 µmol/kg | > 467 | 
O=C(O)c1cc(=O)c2c(OCC(O)COc3cccc4oc(C(=O)O)cc(=O)c34)cccc2o1 [DSCG, disodium chromoglycate] | 1.7 µmol/kg | 1950 µmol/kg | 1150 | 
O=c1cc(-c2nnn[nH]2)oc2cccc(OCC(O)COc3ccc(O)cc3)c12 (stereo not drawn) [Augstein OH] | 0.675 µmol/kg | 1260 to 4950 µmol/kg | 1870 to 7480 | 
N#Cc1ccc(OCC(O)COc2cccc3oc(-c4nnn[nH]4)cc(=O)c23)cc1 (stereo not drawn) [compound 4, SODIUM 1-(4-CYANOPHENOXY)-2-HYDROXY-3-[2-(5-1H-TETRAZOLYL)CHROMON-5-YLOXY]-PROPANE] |  |  |  | ID50 (i.v.) [1]: 0.075 µmol/kg; therapeutic index compared with prior art compounds ([4]; versus any of the prior art compounds): still more superior than any of the prior art compounds
